Experiments:
[1] = species: Bos taurus; test: Inhibition of bovine trypsin assessed as protease activity using D-CHA-AR-AMC as substrate at 10 uM by fluorescence assay relative to control; design: scale not given: the % may be the effect or the level left
[2] = biological target: Enteropeptidase (Homo sapiens) (UniProt P98073); test: Inhibition of full length recombinant human EP expressed in CHO cells assessed as protease activity using […] as substrate at 1 uM by fluorescence assay relative to control; design: scale not given: the % may be the effect or the level left
[3] = biological target: Enteropeptidase (Homo sapiens) (UniProt P98073); test: Inhibition of full length recombinant human EP expressed in CHO cells assessed as protease activity using […] as substrate at 10 uM by fluorescence assay relative to control; design: scale not given: the % may be the effect or the level left
[4] = biological target: Enteropeptidase (Homo sapiens) (UniProt P98073); test: Inhibition of full length recombinant human EP expressed in CHO cells assessed as protease activity using […] as substrate at 0.1 uM by fluorescence assay relative to control; design: scale not given: the % may be the effect or the level left
[5] = species: Bos taurus; test: Inhibition of bovine trypsin assessed as protease activity using D-CHA-AR-AMC as substrate at 0.1 uM by fluorescence assay relative to control; design: scale not given: the % may be the effect or the level left
[6] = species: Bos taurus; test: Inhibition of bovine trypsin assessed as protease activity using D-CHA-AR-AMC as substrate at 1 uM by fluorescence assay relative to control; design: scale not given: the % may be the effect or the level left
[7] = Apparent permeability from apical to basolateral side in dog MDCK cells; format: ADME, cell-based, Canis lupus familiaris

Chain of Enteropeptidase (Homo sapiens) (P98073 2-784 limits assumed): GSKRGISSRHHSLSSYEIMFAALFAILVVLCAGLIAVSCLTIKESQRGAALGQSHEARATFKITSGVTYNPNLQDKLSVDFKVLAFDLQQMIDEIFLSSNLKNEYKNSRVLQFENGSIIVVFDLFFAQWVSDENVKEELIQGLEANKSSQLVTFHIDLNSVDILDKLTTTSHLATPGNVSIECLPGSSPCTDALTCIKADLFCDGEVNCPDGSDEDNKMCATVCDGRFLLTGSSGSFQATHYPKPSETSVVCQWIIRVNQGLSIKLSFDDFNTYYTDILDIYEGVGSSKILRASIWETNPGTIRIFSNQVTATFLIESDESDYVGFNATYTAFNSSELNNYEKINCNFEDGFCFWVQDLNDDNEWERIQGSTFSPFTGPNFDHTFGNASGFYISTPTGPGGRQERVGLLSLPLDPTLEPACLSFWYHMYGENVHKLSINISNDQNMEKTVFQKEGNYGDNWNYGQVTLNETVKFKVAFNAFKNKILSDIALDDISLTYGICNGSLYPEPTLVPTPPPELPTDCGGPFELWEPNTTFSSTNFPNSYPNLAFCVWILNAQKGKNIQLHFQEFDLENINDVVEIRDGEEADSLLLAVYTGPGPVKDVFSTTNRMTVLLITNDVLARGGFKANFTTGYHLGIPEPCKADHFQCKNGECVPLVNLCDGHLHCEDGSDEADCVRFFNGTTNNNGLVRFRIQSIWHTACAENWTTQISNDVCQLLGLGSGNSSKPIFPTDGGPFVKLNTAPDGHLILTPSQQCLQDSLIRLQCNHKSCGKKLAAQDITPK
Chain of Enteropeptidase (Homo sapiens) (P98073 785-1019 limits assumed): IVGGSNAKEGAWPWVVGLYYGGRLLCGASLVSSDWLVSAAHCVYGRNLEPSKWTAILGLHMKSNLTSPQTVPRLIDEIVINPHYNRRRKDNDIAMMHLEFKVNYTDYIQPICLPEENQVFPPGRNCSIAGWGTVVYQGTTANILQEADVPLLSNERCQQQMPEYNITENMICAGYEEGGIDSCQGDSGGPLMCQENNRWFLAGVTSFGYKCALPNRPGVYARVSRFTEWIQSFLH

Row | Activity [1] [%] | Activity [2] [%] | Activity [3] [%] | Activity [4] [%] | Activity [5] [%] | Activity [6] [%] | Papp A→B [7] [×10⁻⁶ cm/s] | SMILES
1 | 98.9 | 93.8 | 99.3 | 40.5 | 31.4 | 89.2 |  | CN(C(=N)N)c1ccc(C(=O)Oc2ccc(CC(=O)O)n3ncnc23)cc1
2 | 99.8 | 84.4 | 101 | 18.2 | 6.34 | 56.6 |  | N=C(N)Nc1ccc(C(=O)Oc2ccc(CC(=O)O)n3ncnc23)cc1Cl
3 | 100 | 92.1 | 101 | 34.3 | 12.4 | 73.1 |  | N=C(N)Nc1ccc(C(=O)Oc2ccc(CC(=O)O)n3ncnc23)cc1O
4 | 88.7 | 38.5 | 98.9 | 4.14 | 2.31 | 16.6 |  | N=C(N)Nc1ccc(C(=O)Oc2ccc(CC(=O)O)n3ncnc23)c(C(F)(F)F)c1
5 | 100 | 101 | 100 | 48.1 | 99.7 | 100 | 1.03 | N=C(N)Nc1ccc(C(=O)Oc2ccc(CC(=O)NCC(=O)O)n3ncnc23)cc1
6 | 21.6 | 16.9 | 58.6 | 4.69 | -0.36 | 2.66 |  | O=C(O)Cc1ccc(OC(=O)c2ccc(C3=NCCN3)cc2)c2ncnn12
7 | 9.42 | 1.32 | 12.6 | 1.35 | -1.72 | 0.59 |  | C/N=C(\NC)Nc1ccc(C(=O)Oc2ccc(CC(=O)O)n3ncnc23)cc1
8 | 18.2 | 9.05 | 34 | 2.43 | -3.11 | -3.33 |  | CONC(=N)c1ccc(C(=O)Oc2ccc(CC(=O)O)n3ncnc23)cc1
9 | 18.6 | -6.7 | 6.8 | -11.2 | -0.24 | 1.21 |  | N=C(N)Nc1cccc(C(=O)Oc2ccc(CC(=O)O)n3ncnc23)c1
10 | 100 | 100 | 100 | 81.2 | 99.3 | 100 | 0.75 | N=C(N)Nc1ccc(C(=O)Oc2ccc(CC(=O)N[C@@H](CC(=O)O)C(=O)O)n3ccnc23)cc1
11 | 29.9 | -6.26 | 32.1 | -3.01 | 0.95 | 12.3 |  | N#Cc1cc(C(=O)Oc2ccc(CC(=O)O)n3ncnc23)ccc1NC(=N)N
12 | 100 | 99.5 | 100 | 92.1 | 96.5 | 100 |  | N=C(N)Nc1ncc(C(=O)Oc2ccc(CC(=O)O)n3ncnc23)cn1
13 | 100 | 58.8 | 101 | 13.1 | 81.7 | 100 |  | N=C(N)Nc1ccc(C(=O)Oc2cc(CC(=O)O)cn3ncnc23)cc1
14 | -7.45 | -2.47 | -2.75 | -0.28 | 0.21 | -2.97 |  | O=C(O)Cc1ccc(OC(=O)c2ccc(NC3=NCCN3)cc2)c2ncnn12
15 | 93 | 57.9 | 93.2 | 10.5 | 10.9 | 58.3 |  | N=C1NCCN1c1ccc(C(=O)Oc2ccc(CC(=O)O)n3ncnc23)cc1
16 | 97.7 | 80.1 | 97.9 | 15.3 | 9.6 | 57.1 |  | CNC(=N)Nc1ccc(C(=O)Oc2ccc(CC(=O)O)n3ncnc23)cc1

Row | Activity [1] [%] | Activity [2] [%] | Activity [3] [%] | Activity [4] [%] | Activity [5] [%] | Activity [6] [%] | Papp A→B [7] [×10⁻⁶ cm/s] | SMILES
17 | 100 | 100 | 100 | 99.4 | 97.2 | 99.7 |  | N=C(N)Nc1ccc(C(=O)Oc2ccc(CC(=O)O)n3ncnc23)c(F)c1
18 | 35.5 | 6.3 | 36.7 | 1.3 | 0 | 8.4 |  | Cc1cc(C(=O)Oc2ccc(CC(=O)O)n3ncnc23)ccc1NC(=N)N
19 | 99.9 | 100 | 100 | 81.2 | 43.5 | 97.6 |  | N=C(N)Nc1ccc(C(=O)Oc2ccc(CC(=O)O)n3ncnc23)c(Cl)c1
20 | 10.1 | -10.1 | -10.8 | -10.7 | -8.04 | -0.45 |  | C/C(=N\O)Nc1ccc(C(=O)Oc2ccc(CC(=O)O)n3ncnc23)cc1
21 | 25.5 | 12.2 | 51.8 | 0.5 | 1.62 | 2.74 |  | N=C(NN)c1ccc(C(=O)Oc2ccc(CC(=O)O)n3ncnc23)cc1
22 | -7.38 | -2 | -10.4 | 1.03 | 2.91 | -3.49 |  | O=C(O)Cc1ccc(OC(=O)c2ccc(NC3=NCCCN3)cc2)c2ncnn12
23 | 99.7 | 99.6 | 100 | 47.8 | 11.5 | 68 |  | CC(=N)Nc1ccc(C(=O)Oc2ccc(CC(=O)O)n3ncnc23)cc1
24 | 99.9 | 87.1 | 101 | 20.8 | 13.8 | 72.4 |  | COc1cc(C(=O)Oc2ccc(CC(=O)O)n3ncnc23)ccc1NC(=N)N
25 | 100 | 101 | 100 | 35 | 99.8 | 100 |  | N=C(N)Nc1ccc(C(=O)Oc2ccc(CCC(=O)O)n3ncnc23)cc1
26 | 66.5 | 11.3 | 52.3 | -0.79 | 5.66 | 8.66 |  | CNC(=N)c1ccc(C(=O)Oc2ccc(CC(=O)O)n3ncnc23)cc1
27 | 35.8 | 1.9 | 13.6 | -1.6 | -2.06 | 2.46 |  | N#CNC(=N)c1ccc(C(=O)Oc2ccc(CC(=O)O)n3ncnc23)cc1
28 | 100 | 101 | 100 | 73 | 99.8 | 100 |  | N=C(N)Nc1ccc(C(=O)Oc2ccc(C3OC(=O)NC3=O)n3ncnc23)cc1 (centres undefined)
29 | 99.9 | 98.8 | 100 | 36.3 | 14.6 | 80 |  | N=C(N)Nc1ccc(C(=O)Oc2ccc(CC(=O)O)n3ncnc23)c2ccoc12
30 | 72.5 | 43.7 | 83.6 | 10.9 | 3.87 | 19.9 |  | N=C(N)NCc1ccc(C(=O)Oc2ccc(CC(=O)O)n3ncnc23)cc1
31 | 99.7 | 59.9 | 101 | 10.3 | 9.45 | 49 |  | Cc1cc(NC(=N)N)ccc1C(=O)Oc1ccc(CC(=O)O)n2ncnc12
32 | 99.8 | 100 | 100 | 82 | 93.8 | 99.9 |  | N=C(N)Nc1ccc(C(=O)Oc2ccc(CC(=O)O)n3ncnc23)s1
